# What was measured:
# Type in all cases: in vivo
# [1] = system: scopolamine-induced amnesic mice; assay: Modified Y-maze test; details: i.p. 1 h before, scopolamine 1 mg/kg, doses as in the sentence
# Method: The modified Y-maze test was performed to evaluate spatial working memory. The experiment was divided into 3 sessions; (i) IND8 at 5, 10, and 50 μmol/kg or 1.5, 2.9, and 14.7 mg/kg doses, (ii) QND8 at 5, 10, and 50 μmol/kg or 1.4, 2.7, 13.5 mg/kg doses, and (iii) IND8 and QND8 at dose of 25 μmol/kg or 7.3 and 6.8 mg/kg, respectively and PNU-282987 at […] or 3, 10 mg/kg doses.
# FIG. 21 illustrates the percentage of unfamiliar arm exploration in modified Y-maze of IND8 (FIG. 21A), QND8 (FIG. 21B), and IND8, QND8, PNU-282987 (FIG. 21C). IND8, QND8, PNU-282987, vehicle (15% Tween80, SH) and tacrine (TC) were injected 1 h and scopolamine (SC) 30 min before sample phase, respectively. Each mouse was placed at the end of one arm and allowed to access 2 arms of Y-maze for 5 min in sample phase. After a 30 min period, the mouse was allowed to explore 3 arms for 5 min. The number of entries for each arm was recorded and the percentage of unfamiliar arm exploration was calculated. Data represented in means±standard errors (SE).
# Male ICR mice (6-weeks of age) were housed in 5 per cage with free access to food and tap water under 12 h light and dark cycle (light on 6:00 to 18:00) in a temperature and humidity controlled room. They were acclimated in a laboratory at least 7 days prior to starting experiments. The experimental protocols were approved by the Animal Care and Use Committee of KhonKaen University, Thailand.
# Tacrine hydrochloride (Sigma-Aldrich, St. Louis, Mo.), PNU-282987 hydrochloride (Alamone, Jerusalem, Israel) and test compounds were prepared as suspensions by using 15% tween 80 in distilled water as a vehicle, whereas scopolamine hydrochloride (Sigma-Aldrich, St. Louis, Mo.) and methyllycaconitine citrate (MLA) (Abcam, Cambridge, England) were prepared as a solution by dissolving with 0.9% normal saline solution (NSS). All compounds were administered by intraperitoneal (i.p.) injection in the amount of 5 mL/kg. Test compounds were injected 1 h and scopolamine was administered 30 min before the experiments, whereas MLA was injected 5 min before the test compounds.
# (§1) Amnesia was induced pharmacologically in mice via scopolamine injection (single dose) for 30 min prior to start the experiments. They were divided into vehicle group: receiving 15% tween 80 and 0.9% NSS, amnesia group: receiving scopolamine 1 mg/kg, standard positive control group receiving tacrine 1 mg/kg, and test group: receiving IND8, QND8 at dose 5, 10, 25, 50 μmol/kg, or PNU-282987 3, 10 mg/kg, single dose. All mice were acclimated in an experimental room at least 30 min before the experiments.
# The maze in this experiment is the same apparatus using in locomotor activity test except there is the black partition to close one of three arms. The mice were randomly separated into different treatment groups. They were injected with test compounds and scopolamine at 1 h and 30 min, respectively, before the sample phase. In this phase which one arm of Y-maze was closed by the black partition, each mouse was placed at the end of one arm and allowed to move through 2 arms for 5 min to get familiar with the two opened arms. After 30 min of resting, all arms were opened and the mouse was allowed to move freely through all 3 arms. The maze area and the partition were cleaned with 70% ethanol between each experiment to remove olfactory cues. The number of entries in each arm was counted visually if mice accessed into each arm at least 10 cm. The percentage of unfamiliar arm exploration was calculated as following equation: […]
# [2] = system: scopolamine-induced amnesic mice; assay: Water maze test; details: i.p., IND8 25 and 50 μmol/kg, QND8 25 μmol/kg
# Method: The water maze test, a model for spatial learning and reference memory, related to function in the hippocampus, was also used as a study model in which mice locate a hidden platform after training session. Mice were trained to locate a hidden platform until a steady state measured by a shortened escape latency time was reached.
# The average swimming time in a target quadrant where the platform had previously been placed was measured in the test day, day 8 (FIG. 25).
# FIG. 25 illustrates the average swimming time in the target quadrant of water maze test. Data are presented in means±SE. IND8, QND8, PNU-282987, vehicle (15% Tween80, SH) and tacrine (TC) were injected 1 h and scopolamine (SC) 30 min before testing, respectively.
# A black circular tank (diameter 70 cm; height 28 cm) was divided into 4 quadrants with a removable escape platform (6×7.5×14 cm) centered in a target quadrant. The tank was filled with water to 15 cm height and the platform was located 1 cm below the water surface.
# Mice were trained from 5-7 days to get the steady state of escape latency. During day 1 to 5, each mouse was trained to swim from each quadrant with 1 min maximum time and allowed to stay on the platform for 10 sec. The mouse is placed on the platform for 10 s if it cannot find the hidden platform within 1 min. The escape latency time from each quadrant was measured. […] The probe test began when the escape latency time reached the steady state. The platform was removed and time spent in the target quadrant was measured. On the next day, all conditions were the same as probe test, but the platform was brought back to remind the mice of the target quadrant location. All mice were injected with test compounds 1 h and scopolamine 30 min before testing. The swimming time in the target quadrant was measured.
# [3] = system: scopolamine-induced amnesic mice; assay: Object recognition test (ORT); details: i.p., tacrine 1 mg/kg, IND8, QND8 10 and 50 μmol/kg
# Method: FIG. 22 illustrates exploration time to familiar (F) and novel (N) objects of IND8 (A) and QND8 (B) in test phase of ORT. Each mouse was allowed to explore an open field apparatus for 5 min in a habituation phase. After a 24 h period, IND8, QND8, PNU-282987, vehicle (15% Tween80, SH) and tacrine (TC) were injected 1 h and scopolamine (SC) 30 min before sample phase, respectively. Each mouse explored 2 identical objects in the sample phase for 5 min and then placed in its cage for 10 min before the test phase began. In the 5 min of test phase, one of the objects was changed to a new one. The exploration time of these objects was recorded.
# In both data sets, a discrimination index (DI) was calculated and used to evaluate the ability of mice to discriminate between familiar and novel objects. Data are represented in FIG. 23.
# as §1
# The apparatus was made of black polyvinyl chloride (52×52×40 cm). The objects used in this experiment had different visual shapes and colors to be discriminated. They were placed 10 cm from the side wall in the balanced manner. The box area and objects were cleaned with 70% ethanol between each experiment to remove odor cues.
# The mice were randomly divided into different treatment groups. They were allowed to freely explore the open field apparatus for 5 min for habituation in the day prior to the experiments to get familiar with the apparatus. On the experimental day, test compounds injected 1 h, whereas scopolamine administered 30 min before the sample phase (acquisition trial). The mice were placed in the apparatus to explore 2 identical objects. After 10 min of acclimation in their cages, one object was changed to a new one, and mice were allowed to explore these objects for 5 min in the test phase (retention trial). The exploration time of each object was recorded if the nose of mice approached the objects within 3 cm or touched the objects. The discrimination index (DI) was calculated by using (TN−TF)/(TN+TF); TN and TF represented exploration time of new and familiar objects, respectively.
smiles,measurement,setting,value
"Nc1c2c(nc3ccccc13)CCCC2 [Tacrine, reference compound]","Unfamiliar arm exploration / cognitive deficit, modified Y-maze vs scopolamine-treated group",[1],reversed the cognitive deficit induced by scopolamine
same,"Unfamiliar arm exploration / cognitive deficit, modified Y-maze vs scopolamine-treated group",[1]; listed as tacrine,can improve cognitive deficits induced by scopolamine in all test models
same,"Time in target quadrant, water maze vs scopolamine-treated group",[2],significantly improved cognitive deficits
same,"Time in target quadrant, water maze vs scopolamine-treated group",[2]; listed as tacrine,can improve cognitive deficits induced by scopolamine in all test models
same,"Discrimination index / episodic short-term memory, ORT vs scopolamine-treated group",[3],significantly improved episodic short-term memory
same,"Discrimination index / episodic short-term memory, ORT vs scopolamine-treated group",[3]; listed as tacrine,can improve cognitive deficits induced by scopolamine in all test models

# Reference: patent US20180244653A1, “SELECTIVE ALPHA-7 NICOTINIC RECEPTOR AGONISTS AND METHODS FOR MAKING AND USING THEM” (THE REGENTS OF THE UNIVERSITY OF CALIFORNIA, priority 2015, published 2018)
